Tests used:
Format in all cases: cell-based, human
[1] = tested on: CD8+ T cells; settings: control donors aged 21-42, wk 0 directly ex vivo, peptide pulsed T2 cells 1:1; positive if SFC greater than 5 per 100000 CD8+ T cells, p<0.05
[2] = tested on: CD8+ T cells; settings: for control donors in whom the epitope elicited a response: 12 control donors, aAPC assay, ICS; for geriatric donors with CD8+ T cells responding to the epitope: nine geriatric donors aged 65 and above, IFNγ ICS after 3 weeks of aAPC stimulation
[3] = tested on: CD8+ T cells

Sequence	number of donors who responded by IFNγ ELISpot [1]	control donors in whom the epitope elicited a response [2]	geriatric donors with CD8+ T cells responding to the epitope [2]	CD8+ T cells specific for the epitope by A2-Ig dimer staining [3] [%]	CD8+ T cells specific by IFNγ expression (ICS) ([2]; Donor C1, after 3 weekly aAPC stimulations, restimulated with peptide pulsed T2 cells 1:1) [%]
CVNGSCFTV (listed as Influenza virus) [NA231-239, subdominant influenza peptide, pool 1]	no donor responded				
IMDKNIILKA (listed as Influenza virus) [NS1123-132, subdominant influenza peptide, pool 2]	One	majority of the donors	Donors E2, E3, E4, and E8 responded		
NMLSTVLGV (listed as Influenza virus) [PB1413-421, subdominant influenza peptide, pool 1]	Four out of the six	majority of the donors	none responded	75	37
SLCPIRGWAI (listed as Influenza virus) [NA75-84, subdominant influenza peptide, pool 2]	2				
SLENFRAYV (listed as Influenza virus) [PA225-233, subdominant influenza peptide, pool 1]	One				

Reference: patent US20110300168A1, “COMPOSITIONS AND METHODS FOR INDUCING AN IMMUNE RESPONSE AGAINST INFLUENZA ANTIGENS” (THE JOHNS HOPKINS UNIVERSITY, priority 2010, published 2011)
